# According to patent US5830855A, “Lipodepsipeptides as antifungal and fungicidal agents” (priority 1996, dated 1998):
# Experiments:
# Candida rugosa [1] = assay: Broth microdilution MIC; format: cell-based
# Description: (§1) Medium: Liquid RPMI 1640 (RPMI) medium with L-glutamine and without sodium bicarbonate (Sigma Chemical Co., R-6504; St. Louis, Mo.) buffered with 0.165M MOPS (34.54 g/liter) was used for in vitro antifungal tests. The medium was adjusted to pH 7.0 with 10M NaOH and filter sterilized.
# (§2) Lipodepsipeptide Dilutions: All stock drug solution concentrations were at least 10-fold higher than the highest concentration tested. AmB, ketoconazole, and the test compounds (SR-E, ST-B, and SS-A) were dissolved in sterile distilled water, 0.2N HCl, and 0.001N HCl, respectively. Each stock solution was diluted to 2× the highest concentration of drug tested with RPMI. Two-fold dilutions were made with RPMI medium.
# (§3) Preparation of Inoculum Suspensions: On Sabouraud dextose agar (SDA; BBL, Becton and Dickinson and Co., Cockeysville, Md.) all isolates were subcultured at least twice before use to ensure purity and viability. Candida spp. and Saccharomyces cerevisiae were grown for 24 hr at 35° C. Isolates of Cryptococcus neoformans were grown for 48 hr at 35° C. Yeast cells from at least five 1-mm-diameter colonies were suspended in 5 ml of sterile 0.85% saline. The resulting suspension was vortexed for 15 sec. The turbidity of each mixed suspension was measured at 530 nm and adjusted to 1×10^6 to 5×10^6 CFU/ml by the NCCLS spectrophotometric method described by National Committee for Clinical Laboratory Standards. 1992. Reference method for broth dilution antifungal susceptibility testing of yeasts; proposed standard, NCCLS document M27-P (ISBN 1-56238-186-5). NCCLS, Villanova. The final transmission of each yeast suspension ranged from 85-87%.
# (§4) Aspergillus fumigatus and Mucor spp. were grown for 1 wk at 35° C. The dermatophytes, Microsporum spp. and Trichophyton spp., were grown for two wk at 30° C. Fungal spores were washed from the plates of all good spore formers (A. fumigatus, Mucor spp., Microsporum canis and Trichophyton spp.) by placing 5 ml of 0.85% saline with 0.2% Tween 80 on the plates and mixing with an inoculating loop. The spore/mycelium suspension was drawn off with a pipette and allowed to settle for at least 5 min. For the poor spore-forming Microsporum audouinii, the procedure was the same except the spore/mycelial suspension was homogenized with a ground glass tissue homogenizer and then allowed to settle for at least 5 min. A small amount of the supernatant was transferred to 5 ml of sterile saline and vortexed. The stock suspensions of all filamentous fungi were measured at 530 nm and adjusted to 85-87% transmission. The concentration (1×10^6 to 5×10^6 CFU/ml) was determined by hemacytometer count or plate count on SDA. All stock suspensions were diluted 1000-fold with RPMI, or 2× the final desired test inocula. The 2× inoculum was diluted 1:1 when the wells were inoculated, and the desired inoculum size was achieved.
# (§5) Broth Microdilution Test: Broth microdilution tests were performed using sterile, disposable, multiwell microdilution plates (96 round U-bottom wells) (Falcon 3077; Becton and Dickinson Labware, Lincoln Park, N.J.). The drugs (2× concentrations) were dispensed into the wells of rows number 1 to 10 of the microdilution plates in 100 μl volumes from highest drug concentration to lowest drug concentration. Each well was inoculated with 100 μl of the corresponding 2× concentrated fungal suspension. The wells of row 11 contained the inoculum with drug-free media as a positive growth control and the wells of row 12 contained uninoculated-drug-free medium as a sterility control.
# (§6) Incubation and Scoring of MIC: All cultures were incubated without shaking at the temperature used during subculture. Incubation times were 48 hr for Candida spp., S. cerevisiae, A. fumigatus, and Mucor spp; 72 hr for C. neoformans; and 7 days for Microsporum and Trichophyton spp. […]
# Candida tropicalis [2] = assay: Broth microdilution MIC; format: cell-based
# Description: as §1, §2, §3, §4, §5, §6
# Aspergillus fumigatus [3] = assay: Broth microdilution MIC; format: cell-based; conditions: Table 1 (MICs), 16 isolates, 48 hr
# Description: as §1, §2, §3, §4, §5, §6
# Cryptococcus neoformans [4] = assay: Broth microdilution MIC; format: cell-based
# Description: as §1, §2, §3, §4, §5, §6
# Saccharomyces cerevisiae [5] = assay: Broth microdilution MIC; format: cell-based; conditions: Table 1 (MICs), 1 strain tested more than once (control ATCC 36375), 48 hr
# Description: as §1, §2, §3, §4, §5, §6
# Candida parapsilosis [6] = assay: Broth microdilution MIC; format: cell-based; conditions: Table 1 (MICs), 2 isolates, 48 hr
# Description: as §1, §2, §3, §4, §5, §6
# Candida lusitaniae [7] = assay: Broth microdilution MIC; format: cell-based; conditions: Table 1 (MICs), 2 isolates, 48 hr
# Description: as §1, §2, §3, §4, §5, §6
# Microsporum spp. [8] = assay: Broth microdilution MIC; format: cell-based; conditions: Table 1 (MICs), 2 isolates, 7 days
# Description: as §1, §2, §3, §4, §5, §6
# Candida albicans = assay: Broth microdilution MIC; format: cell-based; conditions: Table 1 (MICs); Candida albicans, 20 isolates; RPMI pH 7.0, 48 hr; Ktz read at score 2, others at score 0
# Description: as §1, §2, §3, §4, §5, §6
# Trichophyton spp. [9] = assay: Broth microdilution MIC; format: cell-based; conditions: Table 1 (MICs), 3 isolates, 7 days
# Description: as §1, §2, §3, §4, §5, §6
# Mucor spp. [10] = assay: Broth microdilution MIC; format: cell-based; conditions: Table 1 (MICs), 5 isolates, 48 hr
# Description: as §1, §2, §3, §4, §5, §6
# Candida krusei [11] = assay: Broth microdilution MIC; format: cell-based; conditions: Table 1 (MICs), 2 isolates, 48 hr
# Description: as §1, §2, §3, §4, §5, §6
# Candida kefyr [12] = assay: Broth microdilution MIC; format: cell-based; conditions: Table 1 (MICs), 1 isolate, 48 hr
# Description: as §1, §2, §3, §4, §5, §6
# [13] = test system: clinical isolates (fungi); assay: Broth microdilution MIC, fungal isolates overall; format: cell-based; conditions: range over all clinical isolates
# Source text: Most of the fungal strains used in the tests were clinical isolates obtained from the University of Texas Health Science Center at San Antonio Fungus Testing Laboratory (San Antonio, Tex.) and the remaining isolates were ATCC strains.
# as §1
# Lipodepsipeptide Dilutions: All stock drug solution concentrations were at least 10-fold higher than the highest concentration tested. […]
# (§7) Preparation of Inoculum Suspensions: On Sabouraud dextose agar (SDA; BBL, Becton and Dickinson and Co., Cockeysville, Md.) all isolates were subcultured at least twice before use to ensure purity and viability. […] The turbidity of each mixed suspension was measured at 530 nm and adjusted to 1×10^6 to 5×10^6 CFU/ml by the NCCLS spectrophotometric method described by National Committee for Clinical Laboratory Standards. […]
# (§8) Aspergillus fumigatus and Mucor spp. were grown for 1 wk at 35° C. […] The stock suspensions of all filamentous fungi were measured at 530 nm and adjusted to 85-87% transmission. The concentration (1×10^6 to 5×10^6 CFU/ml) was determined by hemacytometer count or plate count on SDA. […]
# Candida rugosa [14] = assay: Minimum Fungicidal Concentration (MFC); format: cell-based; conditions: Table 2, 2 isolates, 24 hr
# Description: as §1, §2, §3, §4, §5, §6
# Candida tropicalis [15] = assay: Minimum Fungicidal Concentration (MFC); format: cell-based; conditions: Table 2, 2 isolates, 24 hr
# Description: as §1, §2, §3, §4, §5, §6
# Aspergillus fumigatus [16] = assay: Minimum Fungicidal Concentration (MFC); format: cell-based; conditions: Table 2, 16 isolates, 48 hr
# Description: as §1, §2, §3, §4, §5, §6
# Cryptococcus neoformans [17] = assay: Minimum Fungicidal Concentration (MFC); format: cell-based; conditions: Table 2, 14 isolates, 48 hr
# Description: as §1, §2, §3, §4, §5, §6
# Saccharomyces cerevisiae [18] = assay: Minimum Fungicidal Concentration (MFC); format: cell-based; conditions: Table 2, 1 strain tested more than once, 24 hr
# Description: as §1, §2, §3, §4, §5, §6
# Candida parapsilosis [19] = assay: Minimum Fungicidal Concentration (MFC); format: cell-based; conditions: Table 2, 2 isolates, 24 hr
# Description: as §1, §2, §3, §4, §5, §6
# Candida lusitaniae [20] = assay: Minimum Fungicidal Concentration (MFC); format: cell-based; conditions: Table 2, 2 isolates, 24 hr
# Description: as §1, §2, §3, §4, §5, §6
# Microsporum spp. [21] = assay: Minimum Fungicidal Concentration (MFC); format: cell-based; conditions: Table 2, 2 isolates, 7 d
# Description: as §1, §2, §3, §4, §5, §6
# Trichophyton spp. [22] = assay: Minimum Fungicidal Concentration (MFC); format: cell-based; conditions: Table 2, 3 isolates, 7 d
# Description: as §1, §2, §3, §4, §5, §6
# Mucor spp. [23] = assay: Minimum Fungicidal Concentration (MFC); format: cell-based; conditions: Table 2, 5 isolates, 24 hr
# Description: as §1, §2, §3, §4, §5, §6
# Candida krusei [24] = assay: Minimum Fungicidal Concentration (MFC); format: cell-based; conditions: Table 2, 2 isolates, 24 hr
# Description: as §1, §2, §3, §4, §5, §6
# Candida kefyr [25] = assay: Minimum Fungicidal Concentration (MFC); format: cell-based; conditions: Table 2, 1 isolate, 24 hr
# Description: as §1, §2, §3, §4, §5, §6
# fungal isolates = assay: Fungicidal activity (MFC), fungal isolates overall; format: cell-based, fungi; conditions: Table 2 organisms
# Description: as §1, §2, §7, §8
compound,measurement,setting,value
"C[C@@H]1[C@H](O)[C@@H](C)/C=C/C=C/C=C/C=C/C=C/C=C/C=C/[C@H](O[C@@H]2O[C@H](C)[C@@H](O)[C@H](N)[C@@H]2O)C[C@@H]2O[C@](O)(C[C@@H](O)C[C@@H](O)[C@H](O)CC[C@@H](O)C[C@@H](O)CC(=O)O[C@H]1C)C[C@H](O)[C@H]2C(=O)O [AmB, amphotericin B, reference compound]",MIC range,"Candida rugosa [1]; Table 1 (MICs), Candida rugosa, 2 isolates, 48 hr",0.3 to 1.25 mg/L
same,susceptibility of one strain of C. rugosa,Candida rugosa [1]; one strain of C. rugosa (AmB-resistant),resistance
same,MIC (μg/ml) range,"Candida tropicalis [2]; Table 1 (MICs), Candida tropicalis, 2 isolates, 48 hr",0.3 to 1.25 µg/mL
same,susceptibility of one strain of C. tropicalis,Candida tropicalis [2]; one strain of C. tropicalis,resistance
same,MIC range,Aspergillus fumigatus [3],0.15 to 1.25 mg/L
same,MIC range,"Cryptococcus neoformans [4]; Table 1 (MICs), Cryptococcus neoformans, 14 isolates, 72 hr",0.08 to 1.25 mg/L
same,"MIC, one strain of C. neoformans","Cryptococcus neoformans [4]; one strain of C. neoformans, very sensitive to ST-B, somewhat resistant to AmB",1.25 mg/L
same,MFC (μg/ml) range,Saccharomyces cerevisiae [5],0.3 µg/mL
same,MIC range,Candida parapsilosis [6],0.6 mg/L
same,MIC range,Candida lusitaniae [7],0.3 mg/L
same,MIC range,Microsporum spp. [8],0.04 to 0.3 mg/L
same,MIC range,Candida albicans,0.04 to 0.3 mg/L
same,MIC range,Trichophyton spp. [9],0.3 to 0.6 mg/L
same,MIC range,Mucor spp. [10],0.02 to 0.15 mg/L
same,MIC (μg/ml) range,Candida krusei [11],0.3 to 0.6 µg/mL
same,MIC (μg/ml) range,Candida kefyr [12],0.3 µg/mL
same,susceptibility (MIC) of the clinical isolates,[13],0.02-1.25 g/ml
same,MFC (μg/ml) range,Candida rugosa [14],0.6 to 2.5 µg/mL
same,MFC (μg/ml) range,Candida tropicalis [15],0.6 to 1.25 µg/mL
same,MFC (μg/ml) range,Aspergillus fumigatus [16],0.6 to 2.5 µg/mL
same,MFC (μg/ml) range,Cryptococcus neoformans [17],0.15 to 1.25 µg/mL
same,MFC (μg/ml) range,Saccharomyces cerevisiae [18],1.25 µg/mL
same,MFC (μg/ml) range,Candida parapsilosis [19],1.25 µg/mL
same,MFC (μg/ml) range,Candida lusitaniae [20],0.6 µg/mL
same,MFC (μg/ml) range,Microsporum spp. [21],0.08 to 0.3 µg/mL
same,MFC (μg/ml) range,Trichophyton spp. [22],0.3 to 0.6 µg/mL
same,MFC (μg/ml) range,Mucor spp. [23],≤0.02 to 0.3 µg/mL
same,MFC (μg/ml) range,Candida krusei [24],0.6 µg/mL
same,MFC (μg/ml) range,Candida kefyr [25],0.3 µg/mL
same,fungicidal activity,fungal isolates,fungicidal activity against most of the strains tested
